# Experimental data taken from patent US9718817B2, “Aryl and heteroaryl ether compounds as ROR gamma modulators” (Glenmark Pharmaceuticals S.A., priority 2014, dated 2017).
# Molecular target: T1, GST-tagged ROR gamma ligand binding domain (LBD) (Homo sapiens, UniProt P51449)
# T1 construct: purchased Invitrogen
# T1 sequence (P51449 269-508 limits assumed): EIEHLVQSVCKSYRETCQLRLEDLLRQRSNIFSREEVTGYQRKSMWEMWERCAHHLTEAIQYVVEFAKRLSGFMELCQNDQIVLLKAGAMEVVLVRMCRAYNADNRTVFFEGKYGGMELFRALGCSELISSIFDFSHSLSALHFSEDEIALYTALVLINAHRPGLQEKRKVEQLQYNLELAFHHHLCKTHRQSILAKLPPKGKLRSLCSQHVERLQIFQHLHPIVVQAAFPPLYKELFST
# Test: TR-FRET assay for ROR gamma (LanthaScreen co-activator peptide recruitment)
# Format: biochemical
# Conditions: for IC50: class symbols, from dose response curve; for inhibition at 1 µM: compound 1 μM; for inhibition at 1 µM / inhibition at 10 µM: TR-FRET ratio 520/495, percent of control; for inhibition at 10 µM: compound 10 μM
# Summary of the method: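 Antagonist mode: 10 nM GST-RORγ LBD pre-incubated with compound 1 h at 22 °C in 25 mM HEPES pH 7.4, 100 mM NaCl, 5 mM DTT, 0.01% BSA, 4% DMSO final. Then 300 nM fluorescein-D22 co-activator peptide plus 10 nM Tb-anti-GST added, 1 h at room temperature. IC50 by nonlinear regression of the 520/495 TR-FRET ratio as percent of no-compound control.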
SMILES,IC50 [nM],inhibition at 1 µM [%],inhibition at 10 µM [%]
"CCS(=O)(=O)c1ccc(CC(=O)Nc2ccc3c(c2)nc(C(C)(C)Oc2ccc(C(F)(F)F)cc2)n3C)cc1 [Example 81, 2-[4-(Ethylsulfonyl)phenyl]-N-(1-methyl-2-{2-[4-(trifluoromethyl)phenoxy]propan-2-yl}-1H-benzimidazol-5-yl)acetamide]",> 100,76,88.9
"CCS(=O)(=O)c1ccc(CC(=O)Nc2ccc3c(c2)nc(C(C)(C)Oc2ccc(F)c(F)c2)n3C)cc1 [Example 82, N-{2-[2-(3,4-Difluorophenoxy)propan-2-yl]-1-methyl-1H-benzimidazol-5-yl}-2-[4-(ethylsulfonyl)phenyl]acetamide]",50 to 100,82,88.4
"CCS(=O)(=O)c1ccc(CC(=O)Nc2ccc3c(c2)nc(C(C)(C)Oc2ccc(Cl)cc2F)n3C)cc1 [Example 83, N-{2-[1-(4-Chloro-2-fluoro-phenoxy)-1-methyl-ethyl]-1-methyl-1H-benzoimidazol-5-yl}-2-(4-ethanesulfonyl-phenyl)-acetamide]",50 to 100,83.3,92
"CCS(=O)(=O)c1ccc(CC(=O)Nc2ccc3c(c2)nc(C(C)(C)Oc2ccc(Cl)cc2Cl)n3C)cc1 [Example 84, N-{2-[2-(2,4-Dichlorophenoxy)propan-2-yl]-1-methyl-1H-benzimidazol-5-yl}-2-[4-(ethylsulfonyl)phenyl]acetamide]",< 50,89.7,90.2
"CCS(=O)(=O)c1ccc(CC(=O)Nc2ccc3c(c2)nc(C(C)(C)Oc2ccc(Cl)c(Cl)c2)n3C)cc1 [Example 85, N-{2-[2-(3,4-Dichlorophenoxy)propan-2-yl]-1-methyl-1H-benzimidazol-5-yl}-2-[4-(ethylsulfonyl)phenyl]acetamide]",< 50,87.1,91.2
"CCn1c(C(C)(C)Oc2ccc(Cl)cc2F)nc2cc(NC(=O)Cc3ccc(S(=O)(=O)CC)cc3)ccc21 [Example 86, N-{2-[2-(4-Chloro-2-fluorophenoxy)propan-2-yl]-1-ethyl-1H-benzimidazol-5-yl}-2-[4-(ethylsulfonyl)phenyl]acetamide]",< 50,92.8,93.8
"CCn1c(C(C)(C)Oc2ccc(Cl)c(F)c2)nc2cc(NC(=O)Cc3ccc(S(=O)(=O)CC)cc3)ccc21 [Example 87, N-{2-[1-(4-Chloro-3-fluoro-phenoxy)-1-methyl-ethyl]-1-ethyl-1H-benzoimidazol-5-yl}-2-(4-ethanesulfonyl-phenyl)-acetamide]",< 50,90.8,94.8
"CCn1c(C(C)(C)Oc2ccc(F)cc2F)nc2cc(NC(=O)Cc3ccc(S(=O)(=O)CC)cc3)ccc21 [Example 88, N-{2-[1-(2,4-Difluoro-phenoxy)-1-methyl-ethyl]-1-ethyl-1H-benzoimidazol-5-yl}-2-(4-ethanesulfonyl-phenyl)-acetamide]",< 50,86.2,96.1
"CCn1c(C(C)(C)Oc2ccc(F)c(F)c2)nc2cc(NC(=O)Cc3ccc(S(=O)(=O)CC)cc3)ccc21 [Example 89, N-{2-[1-(3,4-Difluoro-phenoxy)-1-methyl-ethyl]-1-ethyl-1H-benzoimidazol-5-yl}-2-(4-ethanesulfonyl-phenyl)-acetamide]",< 50,86.5,95.5
"CCn1c(C(C)(C)Oc2c(F)cc(F)cc2F)nc2cc(NC(=O)Cc3ccc(S(=O)(=O)CC)cc3)ccc21 [Example 90, 2-(4-Ethanesulfonyl-phenyl)-N-{1-ethyl-2-[1-methyl-1-(2,4,6-trifluoro-phenoxy)-ethyl]-1H-benzoimidazol-5-yl}-acetamide]",< 50,87.3,88.8
"CCn1c(C(C)(C)Oc2ccc(F)c(F)c2F)nc2cc(NC(=O)Cc3ccc(S(=O)(=O)CC)cc3)ccc21 [Example 91, 2-(4-Ethanesulfonyl-phenyl)-N-{1-ethyl-2-[1-methyl-1-(2,3,4-trifluoro-phenoxy)-ethyl]-1H-benzoimidazol-5-yl}-acetamide]",< 50,90,90.6
"CCn1c(C(C)(C)Oc2cc(F)c(F)cc2F)nc2cc(NC(=O)Cc3ccc(S(=O)(=O)CC)cc3)ccc21 [Example 92, 2-(4-Ethanesulfonyl-phenyl)-N-{1-ethyl-2-[1-methyl-1-(2,4,5-trifluoro-phenoxy)-ethyl]-1H-benzoimidazol-5-yl}-acetamide]",< 50,91.5,93.1
"CCn1c(C(C)(C)Oc2ccc(Cl)cc2)nc2cc(NC(=O)Cc3ccc(S(=O)(=O)CC)cc3)ccc21 [Example 93, N-{2-[1-(4-Chloro-phenoxy)-1-methyl-ethyl]-1-ethyl-1H-benzoimidazol-5-yl}-2-(4-ethanesulfonyl-phenyl)-acetamide]",< 50,83.4,87.4
"CCn1c(C(C)(C)Oc2ccc(Cl)cn2)nc2cc(NC(=O)Cc3ccc(S(=O)(=O)CC)cc3)ccc21 [Example 94, N-{2-[1-(5-Chloro-pyridin-2-yloxy)-1-methyl-ethyl]-1-ethyl-1H-benzoimidazol-5-yl}-2-(4-ethanesulfonyl-phenyl)-acetamide]",> 100,78,90.1
"CCS(=O)(=O)c1ccc(CC(=O)Nc2ccc(OC(C)(C)c3ncc(Cl)cc3Cl)c(F)c2)cc1 [Example 95, N-{4-[1-(3,5-Dichloro-pyridin-2-yl)-1-methyl-ethoxy]-3-fluoro-phenyl}-2-(4-ethanesulfonyl-phenyl)-acetamide]",< 50,75.7,77.6
"CCS(=O)(=O)c1ccc(CC(=O)Nc2ccc(OC(C)(C)c3ccc(Cl)cc3Cl)c(F)c2)cc1 [Example 96, N-{4-[1-(2,4-Dichloro-phenyl)-1-methyl-ethoxy]-3-fluoro-phenyl}-2-(4-ethanesulfonyl-phenyl)-acetamide]",< 50,79.3,79.8
"CCS(=O)(=O)c1ccc(CC(=O)Nc2ccc(OC(C)(C)c3ccc(F)cc3Cl)c(F)c2)cc1 [Example 97, N-{4-[1-(2-Chloro-4-fluoro-phenyl)-1-methyl-ethoxy]-3-fluoro-phenyl}-2-(4-ethanesulfonyl-phenyl)-acetamide]",< 50,80.8,82.1
"CCS(=O)(=O)c1ccc(CC(=O)Nc2ccc(OC(C)(C)c3ccc(Cl)cc3F)c(F)c2)cc1 [Example 98, N-{4-[1-(4-Chloro-2-fluoro-phenyl)-1-methyl-ethoxy]-3-fluoro-phenyl}-2-(4-ethanesulfonyl-phenyl)-acetamide]",–,55,49.6
"CCS(=O)(=O)c1ccc(CC(=O)Nc2ccc(OC3(c4ccc(Cl)cc4F)CC3)c(F)c2)cc1 [Example 99, N-{4-[1-(4-Chloro-2-fluoro-phenyl)-cyclopropoxy]-3-fluoro-phenyl}-2-(4-ethanesulfonyl-phenyl)-acetamide]",< 50,81.7,81.1
"CCS(=O)(=O)c1ccc(CC(=O)Nc2ccc(OC3(c4ccc(Cl)c(F)c4)CC3)c(F)c2)cc1 [Example 100, N-{4-[1-(4-Chloro-3-fluoro-phenyl)-cyclopropoxy]-3-fluoro-phenyl}-2-(4-ethanesulfonyl-phenyl)-acetamide]",< 50,79.4,87.2
"CCS(=O)(=O)c1ccc(CC(=O)Nc2ccc(OC3(c4ccc(Cl)cc4Cl)COC3)c(F)c2)cc1 [Example 101, N-{4-[3-(2,4-Dichloro-phenyl)-oxetan-3-yloxy]-3-fluoro-phenyl}-2-(4-ethanesulfonyl-phenyl)-acetamide]",< 50,86.6,82.3
"CCS(=O)(=O)c1ccc(CC(=O)Nc2ccc(OC3(c4ccc(Cl)c(F)c4)COC3)c(F)c2)cc1 [Example 102, N-{4-[3-(4-Chloro-3-fluoro-phenyl)-oxetan-3-yloxy]-3-fluoro-phenyl}-2-(4-ethanesulfonyl-phenyl)-acetamide]",< 50,81.7,84
"CCS(=O)(=O)c1ccc(CC(=O)Nc2ccc(OC3(c4ccc(Cl)c(F)c4)CCOCC3)c(F)c2)cc1 [Example 103, N-{4-[4-(4-Chloro-3-fluoro-phenyl)-tetrahydro-pyran-4-yloxy]-3-fluoro-phenyl}-2-(4-ethanesulfonyl-phenyl)-acetamide]",< 50,73.6,80.2
"CCS(=O)(=O)c1ccc(CC(=O)Nc2ccc(OC(C)(C)Cn3ccc4cc(Cl)ccc43)c(F)c2)cc1 [Example 104, N-{4-[2-(5-Chloro-indol-1-yl)-1,1-dimethyl-ethoxy]-3-fluoro-phenyl}-2-(4-ethanesulfonyl-phenyl)-acetamide]",50 to 100,74.5,79.2
"CCn1c(C(C)(C)Oc2ccc(NC(=O)Cc3ccc(S(=O)(=O)CC)cc3)cc2F)nc2cc(Cl)ccc21 [Example 105, N-{4-[1-(5-Chloro-1-ethyl-1H-benzoimidazol-2-yl)-1-methyl-ethoxy]-3-fluoro-phenyl}-2-(4-ethanesulfonyl-phenyl)-acetamide]",< 50,83.6,84.6
